Laboratory results from patent US20260315464A1, “COMPOSITIONS, METHODS, AND SYSTEMS FOR MODULATING SPLICING OF MSH3” (REVIR THERAPEUTICS, INC., priority 2023, published 2026).

Tested on: MSH3
Assay: QPCR assay for levels of MSH3 upon compound treatment in HEK293T or AD293 cells (fold-change of MSH3 transcript, EC50 of MSH3 downregulation; total MSH3 exons 13/14, exons 20/21; Table 8)
Format: cell-based
Details: for mrna remaining at 1 µM / mrna remaining at 10 µM: Homo sapiens, fold-change of the MSH3 transcript, normalized to GAPDH; for mrna remaining at 1 µM: 1 μM compound; for mrna remaining at 10 µM: 10 μM compound
Procedure: HEK293T or AD293 cells were treated with Compound 274 at 1 μM and […]. RNA, cDNA and qPCR was prepared using TaqMan Cells-to-CT Express kit (ThermoFisher Scientific). Taqman assays (ThermoFisher Scientific) were used for quantification of total MSH3 exons 13/14 (cat #4351372, ID #: Hs00988993_ml), total MSH3 exons 20/21 (cat #4351372, ID #: Hs00989000_ml), exon 13/PE14A (Fwd: 5′-[…]; Rev: 5′-[…]; Probe: 5′-[…]) and exon 20/PE21A (Fwd: 5′-[…]; Rev: 5′-[…]; Probe: 5′-[…]) mRNA expression. Taqman GAPDH (cat #4448489, ID #: Hs02758991_g1) was used as a reference for data normalization.

Compound | mrna remaining at 1 µM [%] | mrna remaining at 10 µM [%] | EC50 (EC50 of MSH3 downregulation, XtalPi) [nM]
Cn1cc(-c2cnc3c(c2)C(=O)N(c2ccc(O[C@H]4C[C@]5(C)CC[C@](C)(C4)N5)nn2)C3)c(C(F)(F)F)n1 [Compound 201, 6-(6-(((1R,3s,5S)-1,5-dimethyl-8-azabicyclo[3.2.1]octan-3-yl)oxy)pyridazin-3-yl)-3-(1-methyl-3-(trifluoromethyl)-1H-pyrazol-4-yl)-6,7-dihydro-5H-pyrrolo[3,4-b]pyridin-5-one] | 90 | 91 | 
Cc1nn(C)cc1-c1cc(F)c2c(c1)C(=O)N(c1ccc(N3CCN[C@@H](C(C)C)C3)nn1)C2 [Compound 296, (S)-6-(1,3-dimethyl-1H-pyrazol-4-yl)-4-fluoro-2-(6-(3-isopropylpiperazin-1-yl)pyridazin-3-yl)isoindolin-1-one] | 54 |  | 
Cc1nn(C)nc1-c1cnc2c(c1)C(=O)N(c1ccc(N3CCC4(CCCN4)CC3)nn1)C2 [Compound 603, 6-(6-(1,8-diazaspiro[4.5]decan-8-yl)pyridazin-3-yl)-3-(2,5-dimethyl-2H-1,2,3-triazol-4-yl)-6,7-dihydro-5H-pyrrolo[3,4-b]pyridin-5-one] | 155 | 94 | 
Cn1nc(Cl)c(-c2cc(F)c3c(c2)C(=O)N(c2ccc(N4CCNC(C)(C)C4)nn2)C3)n1 [Compound 642, 6-(5-chloro-2-methyl-2H-1,2,3-triazol-4-yl)-2-(6-(3,3-dimethylpiperazin-1-yl)pyridazin-3-yl)-4-fluoroisoindolin-1-one] | 91 | 21 | 
CN(c1ccc(N2Cc3ccc(-c4cnn(C)n4)cc3C2=O)nn1)C1CC(C)(C)NC(C)(C)C1 [Compound 370, 2-(6-(methyl(2,2,6,6-tetramethylpiperidin-4-yl)amino)pyridazin-3-yl)-6-(2-methyl-2H-1,2,3-triazol-4-yl)isoindolin-1-one] | 69 | 61 | 
Cc1nn(C)nc1-c1cc2c(cn1)CN(c1ccc(O[C@H]3C[C@]4(C)CC[C@](C)(C3)N4)nn1)C2=O [Compound 96, 6-(2,5-dimethyl-2H-1,2,3-triazol-4-yl)-2-(6-(((1R,3s,5S)-1,5-dimethyl-8-azabicyclo[3.2.1]octan-3-yl)oxy)pyridazin-3-yl)-2,3-dihydro-1H-pyrrolo[3,4-c]pyridin-1-one] | 79 | 119 | 
CN(c1ccc(N2Cc3ncc(-c4cn(C)nc4F)cc3C2=O)nn1)C1CC(C)(C)NC(C)(C)C1 [Compound 187, 3-(3-fluoro-1-methyl-1H-pyrazol-4-yl)-6-(6-(methyl(2,2,6,6-tetramethylpiperidin-4-yl)amino)pyridazin-3-yl)-6,7-dihydro-5H-pyrrolo[3,4-b]pyridin-5-one] | 92 | 25 | 
CC[C@]12CC[C@](C)(C[C@@H](Oc3ccc(N4Cc5cnc(-c6cn(C)nc6C)cc5C4=O)nn3)C1)N2 [Compound 98, 6-(1,3-dimethyl-1H-pyrazol-4-yl)-2-(6-(((1S,3R,5R)-1-ethyl-5-methyl-8-azabicyclo[3.2.1]octan-3-yl)oxy)pyridazin-3-yl)-2,3-dihydro-1H-pyrrolo[3,4-c]pyridin-1-one] | 83 | 25 | 
Cc1nn(C)cc1-c1cc(F)c2c(c1)C(=O)N(c1ccc(N(C)C3CC(C)(C)NC(C)(C)C3)nn1)C2 [Compound 275, 6-(1,3-dimethyl-1H-pyrazol-4-yl)-4-fluoro-2-(6-(methyl(2,2,6,6-tetramethylpiperidin-4-yl)amino)pyridazin-3-yl)isoindolin-1-one] | 79 | 26 | 
CCN1CC2CN(c3ccc(N4Cc5c(F)cc(-c6nn(C)nc6C)cc5C4=O)nn3)CC2C1 (stereo not shown) [Compound 663, 6-(2,5-dimethyl-2H-1,2,3-triazol-4-yl)-2-(6-(5-ethylhexahydropyrrolo[3,4-c]pyrrol-2(1H)-yl)pyridazin-3-yl)-4-fluoroisoindolin-1-one] | 232 | 62 | 
Cc1nn(C)cc1-c1cc2c(cn1)CN(c1ccc(OC3CC(C)(C)NC4(CC4)C3)nn1)C2=O (stereo not shown) [Compound 59, 6-(1,3-dimethyl-1H-pyrazol-4-yl)-2-(6-((5,5-dimethyl-4-azaspiro[2.5]octan-7-yl)oxy)pyridazin-3-yl)-2,3-dihydro-1H-pyrrolo[3,4-c]pyridin-1-one] | 101 | 29 | 
CC1CCN(c2ccc(N3Cc4c(F)cc(-c5nn(C)nc5Cl)cc4C3=O)nn2)CCN1 (stereo not shown) [Compound 668, 6-(5-chloro-2-methyl-2H-1,2,3-triazol-4-yl)-4-fluoro-2-(6-(5-methyl-1,4-diazepan-1-yl)pyridazin-3-yl)isoindolin-1-one] | 103 | 13 | 
Cn1cc(-c2ccc3c(c2)C(=O)N(c2ccc(N4CCN[C@@H](C(C)(C)C)C4)nn2)C3)cn1 [Compound 399, (S)-2-(6-(3-(tert-butyl)piperazin-1-yl)pyridazin-3-yl)-6-(1-methyl-1H-pyrazol-4-yl)isoindolin-1-one] | 65 | 43 | 
Cc1nn(C)nc1-c1cc(F)c2c(c1)C(=O)N(c1ccc(N3CC4(CNC4)C3)nn1)C2 [Compound 666, 2-(6-(2,6-diazaspiro[3.3]heptan-2-yl)pyridazin-3-yl)-6-(2,5-dimethyl-2H-1,2,3-triazol-4-yl)-4-fluoroisoindolin-1-one] | 97 | 59 | 
CN(c1ccc(N2Cc3c(C#N)cc(-c4nn(C)nc4Cl)cc3C2=O)nn1)C1C[C@]2(C)CC[C@](C)(C1)N2 (stereo partly drawn) [Compound 685, 6-(5-chloro-2-methyl-2H-1,2,3-triazol-4-yl)-2-(6-(((1R,5S)-1,5-dimethyl-8-azabicyclo[3.2.1]octan-3-yl)(methyl)amino)pyridazin-3-yl)-1-oxoisoindoline-4-carbonitrile] | 24 | 20 | 
Cc1cn(-c2cc(C#N)c3c(c2)C(=O)N(c2ccc(N(C)[C@H]4C[C@]5(C)CC[C@](C)(C4)N5)nn2)C3)nn1 [Compound 695, 2-(6-(((1R,3s,5S)-1,5-dimethyl-8-azabicyclo[3.2.1]octan-3-yl)(methyl)amino)pyridazin-3-yl)-6-(4-methyl-1H-1,2,3-triazol-1-yl)-1-oxoisoindoline-4-carbonitrile] |  |  | 11100
Cn1nc(Cl)c(-c2cc(F)c3c(c2)C(=O)N(c2ccc(N4CC5(CCNC5)C4)nn2)C3)n1 [Compound 644, 2-(6-(2,6-diazaspiro[3.4]octan-2-yl)pyridazin-3-yl)-6-(5-chloro-2-methyl-2H-1,2,3-triazol-4-yl)-4-fluoroisoindolin-1-one] | 87 | 97 | 
CN(c1ccc(N2Cc3ncc(-c4cnn(CC(C)(C)O)c4)cc3C2=O)nn1)[C@H]1C[C@]2(C)CC[C@](C)(C1)N2 [Compound 604, 6-(6-(((1R,3s,5S)-1,5-dimethyl-8-azabicyclo[3.2.1]octan-3-yl)(methyl)amino)pyridazin-3-yl)-3-(1-(2-hydroxy-2-methylpropyl)-1H-pyrazol-4-yl)-6,7-dihydro-5H-pyrrolo[3,4-b]pyridin-5-one] | 63 | 93 | 
